Literature values in patent US20250261683A1, “ORAL COMPOSITION COMPRISING ENCAPSULATED PH ADJUSTING AGENT” (NICOVENTURES TRADING LIMITED, priority 2022, published 2025).

What was measured:
[1] = descriptive statement
[2] = descriptive statement; isomerizes to trans-bixin

solubility in water [1] | solubility in fats and alcohols [1] | chemical stability when isolated [2] | SMILES
water-soluble |  |  | CC(/C=C/C=C(C)/C=C/C(=O)O)=C\C=C\C=C(C)\C=C\C=C(C)\C=C\C(=O)O (stereo in doubt) [norbixin, (2E,4E,6E,8E,10E,12E,14E,16E,18E)-4,8,13,17-tetramethylicosa-2,4,6,8,10,12, 14,16, 18-nonaenedioic acid]
insoluble | soluble | chemically unstable | COC(=O)/C=C/C(C)=C\C=C\C(C)=C\C=C\C=C(C)\C=C\C=C(C)\C=C\C(=O)O [bixin, (2E,4E,6E,8E,10E,12E,14E,16Z,18E)-20-methoxy-4,8,13,17-tetramethyl-20-oxoicosa-2,4,6,8,10,12,14,16,18-nonaenoic acid]
